According to article PMC12652692, “Synthesis and In Vitro Anticancer Evaluation of Novel Phosphonium Derivatives of Chrysin” (International Journal of Molecular Sciences, 2025):

Columns and labels:
Test in all cases: NCI60 one-dose screen
Type in all cases: cell-based
[1] = system: SF-295; settings: Homo sapiens; SF-295, 10 μM; read-out: Growth percent
Method: (§1) The screening results are presented in the Supplementary Materials (Table S1), where the cytotoxicity was determined for the 10 µM concentration. […] The negative numbers indicate significant decreases in the cell number. […] Compared to the reference chrysin (2), all phosphonium hybrids (3a–h) had significant antiproliferative activities. […] At the same time, it should be noted that more than 60% average reduction was also obtained in the case of the other examined conjugates (3a–h).
(§2) A detailed description of the NCI screening procedures, including the one-dose and five-dose tests, can be found in the Supplementary Materials, on the website of NCI [39], and in our previous work.
(§3) A detailed description of the NCI screening procedures can also be found on the website of NCI [39], and in our […]
(§4) All candidates were examined at first at a single high dose (10 μM) in the full NCI60 cell panel. The value reported for the one-dose test is growth relative to the no-drug control and relative to the time zero number of cells. This made possible the disclosure of both growth inhibition (numbers between 0 and 100) and lethality (numbers less than 0). For example, a value of 100 means no growth inhibition. A value of 20 would mean 80% growth inhibition. A value of 0 means no net growth over the course of the analysis. A value of −20 would mean 20% lethality. A value of −100 means all cells are dead. […]
(§5) concentration levels. The human tumor cell lines of the cancer screening panel were grown in RPMI 1640 medium containing 5% fetal bovine serum and 2 mM l-glutamine. Characteristically, cells were injected in 96-well microtiter plates in 0.1 mL at plating densities ranging from 5000 to 40,000 cells/well, depending on the doubling time of individual cell lines. After cell inoculation, the microtiter plates were incubated at 37 °C, 5% carbon dioxide, 95% air, and 100% relative humidity for 24 hours before the addition of tested compounds. After 24 hours, 2 plates of each cell line were fixed in situ with Cl3COOH (TCA), to represent a measurement of the cell population for each cell line at the time of drug addition (tz). Tested compounds were solubilized in DMSO at 400-fold the desired final maximum test concentration and stored frozen before application. In the course of the drug addition, an aliquot of frozen concentrate was thawed and diluted to twice the desired final maximum test concentration with a complete medium containing 50 μg mL−1 gentamicin. Additional four, 10-fold or ½ log serial dilutions were produced to furnish a total of five drug concentrations plus control. Aliquots of 0.1 mL of these different drug dilutions were added to the appropriate microtiter wells already containing 0.1 mL of medium, resulting in the required final drug concentrations.
(§6) Following drug addition, the plates were incubated at 37 °C, 5% carbon dioxide, 95% air, and 100% relative humidity for an additional 48 hours. For adherent cells, the test was finished by the addition of cold Cl3COOH. Cells were fixed in situ by the addition of 50 μL of cold 50% (w/v) Cl3COOH, and incubated at 4 °C for 1 hour. The supernatant was discarded, and the plates were washed with H2O (5×) and dried in air. Sulforhodamine B (SRB) solution (0.1 mL) at 0.4% (w/v) in 1% CH3COOH was added to each well, and plates were incubated at RT for 10 min. After staining, the unbound dye was removed by washing five times with 1% CH3COOH, and the plates were dried in the air. The bound stain is afterward solubilized with a 10 mM trizma base, and the absorbance is read on an automated plate reader at λ = 515 nm. Utilizing the seven absorbance measurements [time zero (tz), control growth (c), and test growth in the presence of the drug at the five concentration levels (ti)], the percentage growth was determined at each of the drug concentration levels. Growth inhibition (%) was calculated as:
(§7) [(ti − tz)/(c − tz)] × 100, for concentrations where ti ≥ tz (1) […]

[2] = system: MDA-MB-435; settings: Homo sapiens; MDA-MB-435, 10 μM; read-out: Growth percent
Method: as §1, §2, §3, §4, §5, §6, §7

[3] = system: MDA-MB-468; settings: Homo sapiens; MDA-MB-468, 10 μM; read-out: Growth percent
Method: as §1, §2, §3, §4, §5, §6, §7

[4] = system: SW-620; settings: Homo sapiens; SW-620, 10 μM; read-out: Growth percent
Method: as §1, §2, §3, §4, §5, §6, §7

[5] = system: TK-10; settings: Homo sapiens; TK-10, 10 μM; read-out: Growth percent
Method: as §1, §2, §3, §4, §5, §6, §7

[6] = system: ACHN; settings: Homo sapiens, read-out: Growth percent
Method: as §1, §2, §3, §4, §5, §6, §7

[7] = system: BT-549; settings: Homo sapiens; BT-549, 10 μM; read-out: Growth percent
Method: as §1, §2, §3, §4, §5, §6, §7

[8] = system: NCI-H460; settings: Homo sapiens; NCI-H460, 10 μM; read-out: Growth percent
Method: as §1, §2, §3, §4, §5, §6, §7

[9] = system: SK-MEL-2; settings: Homo sapiens; SK-MEL-2, 10 μM; read-out: Growth percent
Method: as §1, §2, §3, §4, §5, §6, §7

[10] = system: HCT-15; settings: Homo sapiens; HCT-15, 10 μM; read-out: Growth percent
Method: as §1, §2, §3, §4, §5, §6, §7

[11] = system: A549/ATCC; settings: Homo sapiens, read-out: Growth percent
Method: as §1, §2, §3, §4, §5, §6, §7

[12] = system: SK-OV-3; settings: Homo sapiens; SK-OV-3, 10 μM; read-out: Growth percent
Method: as §1, §2, §3, §4, §5, §6, §7

[13] = system: 786-0; settings: Homo sapiens; 786-0, 10 μM; read-out: Growth percent
Method: as §1, §2, §3, §4, §5, §6, §7

[14] = system: SK-MEL-5; settings: Homo sapiens; SK-MEL-5, 10 μM; read-out: Growth percent
Method: as §1, §2, §3, §4, §5, §6, §7

[15] = system: UACC-257; settings: Homo sapiens; UACC-257, 10 μM; read-out: Growth percent
Method: as §1, §2, §3, §4, §5, §6, §7

[16] = system: RPMI-8226; settings: Homo sapiens; RPMI-8226, 10 μM; read-out: Growth percent
Method: as §1, §2, §3, §4, §5, §6, §7

[17] = system: U251; settings: Homo sapiens, U-251; U251, 10 μM; read-out: Growth percent
Method: as §1, §2, §3, §4, §5, §6, §7

[18] = system: SNB-75; settings: Homo sapiens; SNB-75, 10 μM; read-out: Growth percent
Method: as §1, §2, §3, §4, §5, §6, §7

[19] = system: NCI/ADR-RES; settings: Homo sapiens, read-out: Growth percent
Method: as §1, §2, §3, §4, §5, §6, §7

[20] = system: KM12; settings: Homo sapiens; KM12, 10 μM; read-out: Growth percent
Method: as §1, §2, §3, §4, §5, §6, §7

SMILES	activity at 10 µM [1]	activity at 10 µM [2]	activity at 10 µM [3]	activity at 10 µM [4]	activity at 10 µM [5]	activity at 10 µM [6]	activity at 10 µM [7]	activity at 10 µM [8]	activity at 10 µM [9]	activity at 10 µM [10]	activity at 10 µM [11]	activity at 10 µM [12]	activity at 10 µM [13]	activity at 10 µM [14]	activity at 10 µM [15]	activity at 10 µM [16]	activity at 10 µM [17]	activity at 10 µM [18]	activity at 10 µM [19]	activity at 10 µM [20]
O=c1cc(-c2ccccc2)oc2cc(OCCCC[P+](c3ccccc3)(c3ccccc3)c3ccccc3)cc(O)c12 [3a]	-96%	-67.5%	-84.9%	-81.7%	-81.8%	-100%	-83%	-75.8%	-94.1%	-94.2%	-56%	-83.4%	-69.5%	-98.4%	-91%	-66.7%	-57.4%	-80.7%	-68.3%	-85.2%
Cc1ccc([P+](CCCCOc2cc(O)c3c(=O)cc(-c4ccccc4)oc3c2)(c2ccc(C)cc2)c2ccc(C)cc2)cc1 [3b]	-91.3%	-88.2%	-87%	-68.5%	-79.3%	-92.8%	-19%	-47.8%	-76.9%	-88%	-49.5%	-75.3%	-69.8%	-96.5%	-72.2%	-55.8%	-50%	-78.4%	-65.7%	-75.5%
COc1ccc([P+](CCCCOc2cc(O)c3c(=O)cc(-c4ccccc4)oc3c2)(c2ccc(OC)cc2)c2ccc(OC)cc2)cc1 [3c]	-73.8%	-89.6%	-77.4%	-34.8%	-87.1%	-63.5%	-82.6%	2.18%	-88.6%	-64.2%	-91.2%	-77.7%	-65.3%	-93.9%	-94.7%	-67.5%	-92.6%	-51.1%	-13.2%	-86.2%
O=c1cc(-c2ccccc2)oc2cc(OCCCC[P+](c3ccc(F)cc3)(c3ccc(F)cc3)c3ccc(F)cc3)cc(O)c12 [3d]	-74%	-90.8%	-85.7%	-67.5%	-84.8%	-85.4%	-76%	-47.4%	-77.3%	-48.6%	-41.1%	-88.2%	-56.5%	-99.2%	-82.1%	-30.1%	-40.7%	-78%	65%	-81.6%
O=c1cc(-c2ccccc2)oc2cc(OCCCC[P+](C3CCCCC3)(C3CCCCC3)C3CCCCC3)cc(O)c12 [3e]	-87%	-93.6%	-83.5%	-76.4%	-91.3%	-72.5%	-89.9%	-66%	-91.9%	-88.8%	-95.3%	-82.4%	-80.1%	-100%	-92.2%	-62.6%	-95.5%	-80.5%	-20.8%	-92%
COc1c(C)cc([P+](CCCCOc2cc(O)c3c(=O)cc(-c4ccccc4)oc3c2)(c2cc(C)c(OC)c(C)c2)c2cc(C)c(OC)c(C)c2)cc1C [3f]	-63.6%	-81.9%	-76%	-62.4%	-84.7%	-88.4%	-53.4%	-58.6%	-77.6%	-58.9%	-66.1%	-58.3%	-47%	-75.2%	-79.7%	-42.9%	-76.6%	-71%	-66.8%	-82.3%
Cc1ccccc1[P+](CCCCOc1cc(O)c2c(=O)cc(-c3ccccc3)oc2c1)(c1ccccc1C)c1ccccc1C [3g]	-98.7%	-98.3%	-99.4%	-96.4%	-99.3%	-97%	-98.1%	-91.5%	-98.5%	-94.7%	-94.1%	-97.9%	-98.1%	-97.9%	-99.3%	-98.5%	-97%	-99%	-97.9%	-95.8%
O=c1cc(-c2ccccc2)oc2cc(OCCCC[P+](c3ccccc3)(c3ccccc3)c3ccccn3)cc(O)c12 [3h]	-92.7%	-80.8%	-90.7%	-88.3%	-93.3%	-98%	-69.7%	-84.2%	-95.4%	-88%	-43.5%	-76.5%	-74.5%	-96.3%	-89.8%	-35.3%	-96%	-47.3%	-41.3%	-94.6%
